From PMC10321576, “Cyclic peptides target the aromatic cage of a PHD-finger reader domain to modulate epigenetic protein function” (Chemical Science, 2023)
Peptide text beside a SMILES is read from it.

Legend:
KDM7A Dual (PHD+JmjC) = KDM7A Dual (PHD+JmjC) (Homo sapiens, UniProt Q6ZMT4); test: BLI binding; settings: 1:1 binding model
Excerpt: (§1) Figure S2. BLI for KDM7 proteins with cyclic peptides.
(§2) BLI traces for b inding to KDM7 protein domains immobilised by C-terminal His -tag on Ni -NTA
(§3) biosensors, against cyclic peptides. Response trace for each peptide concentration is represented by
(§4) a different colour, with the fitted curves overlaid in black.
(§5) concentration plotted, with 2-fold dilutions thereafter. Dual domain = PHD+JmjC. […]
(§6) against KDM7 and other protein domains. t1/2 = half life (0.693 / Koff)
(§7) (1 picture or pasted object on this page, not shown here)

KDM7A PHD [1] = target: T1, KDM7A PHD (Homo sapiens, UniProt Q6ZMT4); test: BLI binding; settings: 1:1 binding model
T1 construct: KDM7A 38-98; made in house
T1 sequence (Q6ZMT4 38-98): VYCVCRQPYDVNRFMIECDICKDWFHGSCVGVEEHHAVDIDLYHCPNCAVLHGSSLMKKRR
Excerpt: as §1, §2, §3, §4, §5, §6, §7

KDM7C Dual (PHD+JmjC) = KDM7C Dual (PHD+JmjC) (Homo sapiens, UniProt O75151); test: BLI binding; settings: 1:1 binding model
KDM7C Dual (PHD+JmjC), sequence (O75151 1-353 limits assumed): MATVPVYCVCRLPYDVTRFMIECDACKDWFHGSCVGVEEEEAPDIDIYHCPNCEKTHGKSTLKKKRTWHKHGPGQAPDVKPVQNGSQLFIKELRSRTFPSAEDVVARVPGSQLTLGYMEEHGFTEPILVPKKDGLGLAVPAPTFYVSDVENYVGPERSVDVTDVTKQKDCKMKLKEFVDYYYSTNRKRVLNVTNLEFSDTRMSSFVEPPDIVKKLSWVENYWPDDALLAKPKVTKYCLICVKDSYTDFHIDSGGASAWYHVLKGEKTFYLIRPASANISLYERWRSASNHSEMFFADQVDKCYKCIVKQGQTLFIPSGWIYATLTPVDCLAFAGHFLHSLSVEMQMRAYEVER
Excerpt: as §1, §2, §3, §4, §5, §6, §7

KDM7C PHD [2] = target: T2, KDM7C PHD (Homo sapiens, UniProt O75151); test: BLI binding; settings: 1:1 binding model
T2 construct: KDM7C 1-67; made in house
T2 sequence (O75151 1-67): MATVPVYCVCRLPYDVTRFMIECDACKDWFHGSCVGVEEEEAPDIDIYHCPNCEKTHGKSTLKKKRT
Excerpt: as §1, §2, §3, §4, §5, §6, §7

KDM7B Dual (PHD+JmjC) = target: T3, KDM7B Dual (PHD+JmjC) (Homo sapiens, UniProt Q9UPP1); test: BLI binding; parameters: key to BLI Screening, KDM7B Dual: (+) = binding; (-) = no binding; (NS) = non-specific
T3 construct: Dual domain = PHD+JmjC; made in house
T3 sequence (Q9UPP1 37-483 limits assumed): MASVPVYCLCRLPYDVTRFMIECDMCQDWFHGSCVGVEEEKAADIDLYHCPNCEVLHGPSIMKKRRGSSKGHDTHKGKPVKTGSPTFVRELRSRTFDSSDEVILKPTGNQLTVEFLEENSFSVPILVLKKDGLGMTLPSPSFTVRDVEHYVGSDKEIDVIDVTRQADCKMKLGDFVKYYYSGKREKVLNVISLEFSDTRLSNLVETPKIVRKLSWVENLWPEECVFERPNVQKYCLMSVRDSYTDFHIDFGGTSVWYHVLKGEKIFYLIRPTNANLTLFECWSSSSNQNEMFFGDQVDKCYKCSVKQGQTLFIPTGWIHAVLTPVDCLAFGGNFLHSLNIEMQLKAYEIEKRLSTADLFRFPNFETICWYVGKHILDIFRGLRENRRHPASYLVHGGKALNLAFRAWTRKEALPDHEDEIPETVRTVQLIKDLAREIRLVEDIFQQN
Excerpt: as §1, §2, §3, §4, §5, §6, §7

KDM7A PHD [3] = target: T1, KDM7A PHD; test: AlphaScreen displacement of H3 1-21K4me3-Bt; format: binding; settings: average of two independent experiments
Excerpt: (§8) The functional effect of OC9 on the PHD-finger was further assessed using an AlphaScreen (AS) based proximity assay. […]

KDM7A PHD+JmjC = KDM7A PHD+JmjC (Homo sapiens, UniProt Q6ZMT4); test: AlphaScreen displacement of H3 1-21K4me3-Bt; format: binding; settings: average of two independent experiments
KDM7A PHD+JmjC, sequence (Q6ZMT4 38-386 limits assumed): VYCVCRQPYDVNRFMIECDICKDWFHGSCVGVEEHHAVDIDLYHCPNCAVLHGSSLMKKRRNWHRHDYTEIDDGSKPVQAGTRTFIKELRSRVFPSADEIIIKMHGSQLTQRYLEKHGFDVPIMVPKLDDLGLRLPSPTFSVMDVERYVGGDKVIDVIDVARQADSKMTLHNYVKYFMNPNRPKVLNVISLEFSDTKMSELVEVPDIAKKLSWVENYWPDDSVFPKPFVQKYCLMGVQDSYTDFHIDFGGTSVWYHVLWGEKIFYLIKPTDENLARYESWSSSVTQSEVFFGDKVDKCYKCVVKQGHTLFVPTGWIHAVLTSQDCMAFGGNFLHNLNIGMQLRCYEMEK
Excerpt: as §8

KDM7B PHD = target: T4, KDM7B PHD (Homo sapiens, UniProt Q9UPP1); test: AlphaScreen displacement of H3 1-21K4me3-Bt; format: binding; settings: average of at least two independent experiments; read-out: AlphaScreen displacement IC50, KDM7B PHD
T4 construct: KDM7B 1-66; made in house
T4 sequence (Q9UPP1 1-66 isoform Q9UPP1-2): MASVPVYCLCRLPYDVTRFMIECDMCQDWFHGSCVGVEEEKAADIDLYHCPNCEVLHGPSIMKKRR
Excerpt: as §8

KDM7B PHD+JmjC = target: T5, KDM7B PHD+JmjC (Homo sapiens, UniProt Q9UPP1); test: AlphaScreen displacement of H3 1-21K4me3-Bt; format: binding; settings: average of two independent experiments
T5 construct: dual domain (PHD-JmjC) of KDM7B; made in house
T5 sequence (Q9UPP1 37-483 limits assumed): as the sequence (Q9UPP1 37-483 limits assumed) above
Excerpt: as §8

KDM7C PHD [4] = target: T2, KDM7C PHD; test: AlphaScreen displacement of H3 1-21K4me3-Bt; format: binding; settings: average of two independent experiments
Excerpt: as §8

DIDO PHD = target: T6, DIDO PHD (Homo sapiens, UniProt Q9BTC0); test: AlphaScreen displacement of H3 1-21K4me3-Bt; format: binding; settings: average of two independent experiments
T6 construct: DIDO PHD
T6 sequence (Q9BTC0 268-322 limits assumed): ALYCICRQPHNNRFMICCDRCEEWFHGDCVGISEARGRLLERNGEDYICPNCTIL
Excerpt: (§9) (14 pictures or pasted objects on this page, not shown here)

ING2 PHD = target: T7, ING2 PHD (Homo sapiens, UniProt Q9H160); test: AlphaScreen displacement of H3 1-21K4me3-Bt; format: binding; settings: once at least in duplicate (Fig. 3c)
T7 construct: ING2 PHD
T7 sequence (Q9H160 212-261 limits assumed): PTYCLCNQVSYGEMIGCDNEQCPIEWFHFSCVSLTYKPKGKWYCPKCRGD
Excerpt: as §9

KDM5A PHD3 = target: T8, KDM5A PHD3 (Homo sapiens, UniProt P29375); test: AlphaScreen displacement of H3 1-21K4me3-Bt; format: binding; settings: once at least in duplicate (Fig. 3c)
T8 construct: KDM5A PHD3
T8 sequence (P29375 1607-1661 limits assumed): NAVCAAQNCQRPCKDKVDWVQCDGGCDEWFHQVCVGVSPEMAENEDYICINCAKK
Excerpt: as §9

SPIN1 TTD = SPIN1 TTD (Homo sapiens, UniProt Q9Y657); test: AlphaScreen displacement of H3 1-21K4me3-Bt; format: binding; settings: once at least in duplicate (Fig. 3c)
SPIN1 TTD, sequence (Q9Y657 53-262 limits assumed): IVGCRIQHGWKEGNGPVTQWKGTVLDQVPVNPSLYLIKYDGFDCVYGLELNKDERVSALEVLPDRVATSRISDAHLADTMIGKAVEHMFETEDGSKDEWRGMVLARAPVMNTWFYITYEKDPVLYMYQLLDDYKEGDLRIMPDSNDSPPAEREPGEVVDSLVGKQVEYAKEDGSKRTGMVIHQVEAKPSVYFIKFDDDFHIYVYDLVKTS
Excerpt: as §9

TAF3 PHD = target: T9, TAF3 PHD (Homo sapiens, UniProt Q5VWG9); test: AlphaScreen displacement of H3 1-21K4me3-Bt; format: binding; settings: once at least in duplicate (Fig. 3c)
T9 construct: TAF3 PHD
T9 sequence (Q5VWG9 865-915 limits assumed): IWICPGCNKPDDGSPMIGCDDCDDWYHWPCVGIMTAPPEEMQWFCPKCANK
Excerpt: as §9

Caco-2 cell = test: Cell permeability measurement (Caco-2); format: in vitro ADME
full-length KDM7B = test: Pull-down from transfected HEK293T nuclear lysates; format: binding; settings: 100-fold excess competitor
Procedure: HEK293T cells were transiently transfected with either a full-length wild-type KDM7B, or an aromatic cage inactivating mutant KDM7B (Y14A, W29A).[20]
Capture was performed with 1 μM probe incubated in pre-cleared lysate, recovered with streptavidin-conjugated magnetic beads, then washed and eluted by heating in denaturing solution. 100-fold excess OC9 or OC9 V10A were used as competitors. […] The upper left quadrant indicates >5-fold difference in recovered protein (based on T-test difference of mean log 2 (LFQ) values) and p-value threshold <0.05.

KDM7B PHD-finger = target: T10, KDM7B PHD-finger (Homo sapiens, UniProt Q9UPP1); test: HDX-MS; format: binding; settings: 60 minute time-course, relative to DMSO
T10 construct: KDM7B 1-66; His-tag (C); made in house
T10 sequence (Q9UPP1 1-66 isoform Q9UPP1-2): T4 sequence (Q9UPP1 1-66 isoform Q9UPP1-2)
Excerpt: (§10) To further evaluate the interactions of OC9 with KDM7B we used hydrogen–deuterium exchange mass spectrometry (HDX-MS), which informs on protein dynamics by following deuterium incorporation into the protein amide backbone (Fig. 2).
(§11) The residue level view was generated by averaging mass changes across overlapping peptide fragments. Supporting data available in ESI. ^† K4me3 binding aromatic cage residues (‘YYMW’ Fig. 1a) are indicated by red asterix.

KDM7B dual domain = target: T11, KDM7B dual domain (Homo sapiens, UniProt Q9UPP1); test: HDX-MS; format: binding; settings: relative to DMSO
T11 construct: dual domain (PHD-JmjC) of KDM7B; His-tag (C); made in house
T11 sequence (Q9UPP1 37-483 limits assumed): as the sequence (Q9UPP1 37-483 limits assumed) above
Excerpt: as §10, §11

[5] = His-tagged protein on Ni-NTA biosensors

KDM7A Dual (PHD+JmjC), sequence (Q6ZMT4 38-386 limits assumed): as the sequence (Q6ZMT4 38-386 limits assumed) above

CC(C)C[C@@H]1NC(=O)[C@H](Cc2ccc(O)cc2)NC(=O)[C@H](Cc2ccc(O)cc2)NC(=O)CSC[C@@H](C(N)=O)NC(=O)[C@H]([C@@H](C)O)NC(=O)[C@H](CCCNC(=N)N)NC(=O)[C@H](Cc2ccccc2)NC(=O)[C@H](C(C)C)NC(=O)[C@H](CO)NC(=O)[C@@H]2CCCN2C(=O)[C@H](Cc2ccc(O)cc2)NC(=O)[C@@H]2CCCN2C(=O)[C@H](Cc2c[nH]cn2)NC(=O)[C@H]([C@@H](C)O)NC1=O [OC9] (HELM PEPTIDE1{[O=C(C[*:3])[*:2]].Y.Y.L.T.H.P.Y.P.S.V.F.R.T.C.[am]}$PEPTIDE1,PEPTIDE1,1:R3-15:R3$$$V2.0)
koff (KDM7A Dual (PHD+JmjC)): 0.0123 ± 0.0001 s⁻¹ | kon (KDM7A Dual (PHD+JmjC)): 289000 ± 3000 M⁻¹ s⁻¹ | Kd (KDM7A Dual (PHD+JmjC); [5]): 42.5 nM | koff (KDM7A PHD [1]): 0.00679 ± 2e-05 s⁻¹ | kon (KDM7A PHD [1]): 358000 ± 3000 M⁻¹ s⁻¹ | Kd (KDM7A PHD [1]; [5]): 19 nM | koff (KDM7C Dual (PHD+JmjC)): 0.000137 ± 1e-06 s⁻¹ | kon (KDM7C Dual (PHD+JmjC)): 409000 ± 2000 M⁻¹ s⁻¹ | Kd (KDM7C Dual (PHD+JmjC); read-out: BLI pKD, KDM7C Dual (converted)): 0.316 nM | koff (KDM7C PHD [2]): 0.000483 ± 2e-06 s⁻¹ | kon (KDM7C PHD [2]): 463000 ± 2000 M⁻¹ s⁻¹ | Kd (KDM7C PHD [2]; [5]): 1.05 nM | koff (KDM7B Dual (PHD+JmjC); 1:1 binding model): 0.00413 ± 3e-05 s⁻¹ | kon (KDM7B Dual (PHD+JmjC); 1:1 binding model): 691000 ± 7000 M⁻¹ s⁻¹ | Kd (KDM7B Dual (PHD+JmjC); His-tagged protein on Ni-NTA biosensors, 1:1 binding model): 5.98 nM | BLI Screening, KDM7B Dual (KDM7B Dual (PHD+JmjC); qualitative assessment of binding by BLI): + | IC50 (KDM7A PHD [3]): 62 nM | IC50 (KDM7A PHD+JmjC): 132 nM | IC50 (KDM7B PHD): 32 nM | IC50 (KDM7B PHD+JmjC): 95 nM | IC50 (KDM7C PHD [4]): 26 nM | AlphaScreen displacement IC50, DIDO PHD (DIDO PHD): no measurable affinity | IC50 (DIDO PHD): > 10000 nM | IC50 (ING2 PHD): > 5000 nM | IC50 (KDM5A PHD3): > 5000 nM | IC50 (SPIN1 TTD): > 2000 nM | IC50 (TAF3 PHD): > 5000 nM | permeability in Caco-2 cell assay (Caco-2 cell): negligible permeability | competition of OC9-Bt pull-down of KDM7B (full-length KDM7B): substantially reduced KDM7B recovery | HDX-MS effect on deuterium uptake, KDM7B PHD-finger (KDM7B PHD-finger): affected an even greater proportion | HDX-MS effect on deuterium uptake, KDM7B dual domain (KDM7B dual domain): only reduced deuterium uptake in peptide fragments within the PHD-finger
